Test results taken from PubChem BioAssay (NCI).
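Grown in 96-well plates, cells were treated for 48 hours with each compound at five concentrations. Insufficient inhibition: endpoint recorded as highest concentration tested. The concentration for 50% growth inhibition is given as GI50. Definition used: TGI = concentration required for complete inhibition of growth.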

What was measured:
Assay in all cases: DTP human tumour cell line panel, 48 h
UACC-257 melanoma = tested on: UACC-257 melanoma
SF-295 CNS = tested on: SF-295 CNS
A549 NSCLC = tested on: A549 NSCLC
ACHN renal = tested on: ACHN renal
SK-MEL-5 melanoma = tested on: SK-MEL-5 melanoma
RXF 393 renal = tested on: RXF 393 renal
SF-268 CNS = tested on: SF-268 CNS
SR leukemia = tested on: SR leukemia

SMILES	GI50 (UACC-257 melanoma)	TGI (UACC-257 melanoma)	GI50 (SF-295 CNS)	TGI (SF-295 CNS)	GI50 (A549 NSCLC)	TGI (A549 NSCLC)	GI50 (ACHN renal)	TGI (ACHN renal)	GI50 (SK-MEL-5 melanoma)	TGI (SK-MEL-5 melanoma)	GI50 (RXF 393 renal)	TGI (RXF 393 renal)	GI50 (SF-268 CNS)	TGI (SF-268 CNS)	GI50 (SR leukemia)	TGI (SR leukemia)
CCOC(=O)c1c2c(n3cccc(F)c13)C(=O)c1ncccc1C2=O	849 nM	6370 nM	500 nM	3690 nM	217 nM	1670 nM	79.1 nM	2430 nM	99.4 nM	3220 nM	412 nM	4100 nM	96.3 nM	28200 nM		
Cc1ccc(C2CC(c3cccc(Nc4ccncc4)c3)=NN2c2ccc(Cl)cc2)cc1 (centres undefined)			1790 nM	3190 nM	1730 nM	3290 nM	1630 nM	2990 nM	1760 nM	3160 nM	1590 nM	2970 nM			1520 nM	3520 nM
COc1ccc2oc(-c3ccc(Cl)cc3)c(N3CCN(C)CC3)c2c1	1680 nM	3430 nM	2060 nM	5120 nM	1830 nM	3940 nM	1730 nM	3700 nM	1580 nM	3060 nM			2360 nM	5610 nM	2270 nM	8120 nM
NNc1nc(-c2ccccn2)nc2sc3c(c12)CCCCCC3	6610 nM	77400 nM			3180 nM	> 100000 nM	4870 nM	63900 nM	3160 nM	24100 nM	6800 nM	43000 nM	7250 nM	> 100000 nM		
C#CCOc1c(OC)cc(C(=O)/C(C)=C/c2cccc(N=[N+]=[N-])c2)cc1OC			122 nM	> 100000 nM	406 nM	> 100000 nM	682 nM	> 100000 nM	288 nM	54300 nM	250 nM	> 100000 nM	637 nM	> 100000 nM		
C#Cc1ccc(-n2c(/C=C/c3ccc4ccccc4n3)nc3ncccc3c2=O)cc1	436 nM	1920 nM	386 nM	1520 nM	353 nM	1830 nM			246 nM	683 nM	269 nM	792 nM	488 nM	2330 nM		
O=C(O)c1cn(C2CC2)c2cc(N3CCN(C(=O)Nc4nc(-c5ccc(Cl)cc5)cs4)CC3)c(F)cc2c1=O	2920 nM	8240 nM	3030 nM	23700 nM	2710 nM	> 100000 nM	1630 nM	22000 nM	1760 nM	3920 nM	3370 nM	54600 nM	828 nM	> 100000 nM		
COC(C(=O)[C@@H](O)[C@@H](C)O)[C@@H]1Cc2cc3cc(O[C@H]4C[C@@H](O[C@H]5C[C@@H](O)[C@H](O)C(C)O5)[C@H](O)C(C)O4)c(C)c(O)c3c(O)c2C(=O)[C@H]1O[C@H]1C[C@@H](O[C@H]2C[C@@H](O[C@H]3C[C@@H](O)[C@@H](O)C(C)O3)[C@@H](O)C(C)O2)[C@H](O)C(C)O1 (some centres undefined)	295 nM	2040 nM	196 nM	> 32500 nM	674 nM	> 32500 nM	485 nM	> 32500 nM			202 nM	1010 nM	207 nM	> 32500 nM	112 nM	> 32500 nM
